{
  "source": "patent US20140135357A1",
  "about": "“DOSE REGIME FOR CAMPTOTHECIN DERIVATIVES” (Taiwan Liposome Company, Ltd., priority 2012, published 2014)",
  "key": {"[1]": {"assay": "in-vitro study of anti-proliferative activity", "type": "cell-based"}, "topoisomerase I": {"target": "T1, topoisomerase I (Homo sapiens, UniProt P11387)", "T1 sequence (P11387 1-765)": "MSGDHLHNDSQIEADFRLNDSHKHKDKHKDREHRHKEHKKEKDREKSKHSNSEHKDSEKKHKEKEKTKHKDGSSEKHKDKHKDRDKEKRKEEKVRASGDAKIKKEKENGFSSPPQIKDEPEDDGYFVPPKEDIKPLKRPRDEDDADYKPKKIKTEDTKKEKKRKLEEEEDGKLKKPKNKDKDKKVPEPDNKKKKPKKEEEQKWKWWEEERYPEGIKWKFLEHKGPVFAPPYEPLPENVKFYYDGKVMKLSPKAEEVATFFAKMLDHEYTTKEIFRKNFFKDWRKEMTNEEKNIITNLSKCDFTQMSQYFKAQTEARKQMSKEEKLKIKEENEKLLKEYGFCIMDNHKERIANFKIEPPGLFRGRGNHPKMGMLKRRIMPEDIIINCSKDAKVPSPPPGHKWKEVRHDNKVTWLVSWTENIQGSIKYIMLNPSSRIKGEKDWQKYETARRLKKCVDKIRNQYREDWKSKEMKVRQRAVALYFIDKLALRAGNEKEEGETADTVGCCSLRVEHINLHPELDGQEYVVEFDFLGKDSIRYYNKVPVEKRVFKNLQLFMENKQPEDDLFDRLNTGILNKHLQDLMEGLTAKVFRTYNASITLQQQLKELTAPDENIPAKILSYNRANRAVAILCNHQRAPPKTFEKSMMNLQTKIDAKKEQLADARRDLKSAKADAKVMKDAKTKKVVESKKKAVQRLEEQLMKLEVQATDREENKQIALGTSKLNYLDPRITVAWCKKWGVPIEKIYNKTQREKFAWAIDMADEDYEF", "assay": "Topoisomerase I inhibition", "type": "biochemical"}, "[2]": {"conditions": "human, in vivo"}, "clinical": {"assay": "clinical", "conditions": "human, in vivo"}},
  "note": "“Also recorded” adds a separate entry of the source. Read-outs that look alike come from different tables or passages of the source.",
  "data": [
    {"smiles": "CC[C@@]1(OC(=O)[C@H](C)O)C(=O)OCc2c1cc1n(c2=O)Cc2cc3c(CN(C)C)c(O)ccc3nc2-1", "note": "[TLC-U2, S,S-topotecan lactate]", "values": [
      {"measurement": "anti-proliferative activity", "setting": "[1]", "result": "comparable to that of TLC 388HCl; also recorded: more potent than that of TLC-U1"},
      {"measurement": "topoisomerase I inhibition", "setting": "topoisomerase I", "result": "weak topoisomerase I Inhibitors"},
      {"measurement": "Dose-normalized AUClast", "setting": "[2]", "result": "4.05 ± 1.34 nM*h/(mg/m^2)"},
      {"measurement": "Dose-normalized Cmax", "setting": "[2]", "result": "2.84 ± 0.97 nM/(mg/m^2)"},
      {"measurement": "difference between PK profiles on Day 1 and Day 8", "setting": "[2]", "result": "no significant difference"},
      {"measurement": "dose proportionality of exposure", "setting": "[2]", "result": "roughly dose proportional"},
      {"measurement": "AUC0-t", "setting": "[2]; 1.5 mg/m2", "result": "2.872 (0.882) hr · ng/mL"},
      {"measurement": "Cmax", "setting": "[2]; 1.5 mg/m2", "result": "2.117 (0.468) ng/mL"},
      {"measurement": "Tmax", "setting": "[2]; 1.5 mg/m2", "result": "0.505 (0.039) hr"},
      {"measurement": "t1/2", "setting": "[2]; 1.5 mg/m2", "result": "1.953 (0.698) hr"},
      {"measurement": "AUC0-t", "setting": "[2]; 3 mg/m2", "result": "5.625 (1.972) hr · ng/mL"},
      {"measurement": "AUC0-t", "setting": "[2]; 6 mg/m2", "result": "11.599 (1.437) hr · ng/mL"},
      {"measurement": "AUC0-t", "setting": "[2]; 9 mg/m2", "result": "16.581 (3.976) hr · ng/mL"},
      {"measurement": "AUC0-t", "setting": "[2]; 20 mg/m2", "result": "29.023 (7.443) hr · ng/mL"},
      {"measurement": "AUC0-t", "setting": "[2]; 30 mg/m2", "result": "78.761 (50.88) hr · ng/mL"},
      {"measurement": "AUC0-t", "setting": "[2]; 35 mg/m2", "result": "102.97 (20.18) hr · ng/mL"},
      {"measurement": "Cmax", "setting": "[2]; 35 mg/m2", "result": "74.800 (42.82) ng/mL"},
      {"measurement": "Tmax", "setting": "[2]; 35 mg/m2", "result": "0.592 (0.091) hr"},
      {"measurement": "t1/2", "setting": "[2]; 35 mg/m2", "result": "3.347 (1.219) hr"},
      {"measurement": "AUC0-t", "setting": "[2]; 40 mg/m2", "result": "72.758 (49.22) hr · ng/mL"},
      {"measurement": "AUC0-t", "setting": "[2]; 50 mg/m2", "result": "97.314 (38.34) hr · ng/mL"},
      {"measurement": "AUC0-t", "setting": "[2]; 60 mg/m2", "result": "109.80 (25.72) hr · ng/mL"},
      {"measurement": "time at which peak plasma concentrations (Cmax) were achieved", "setting": "[2]; iv", "result": "within one hour"},
      {"measurement": "time of rapid rise of the metabolites in the serum after starting the infusion", "setting": "[2]; iv", "result": "≤ 15", "unit": "min"},
      {"measurement": "AUC0-t", "setting": "clinical; 1.5 mg/m2, AUC0-t", "result": 3.74, "unit": "ng·h/mL"},
      {"measurement": "Cmax", "setting": "clinical; 1.5 mg/m2, Cmax", "result": 3.34, "unit": "ng/mL"},
      {"measurement": "Tmax", "setting": "clinical; 1.5 mg/m2, Tmax", "result": 37.7, "unit": "min"},
      {"measurement": "half-life", "setting": "clinical; 1.5 mg/m2, t1/2", "result": 138, "unit": "min"},
      {"measurement": "AUC0-t", "setting": "clinical; 3 mg/m2, AUC0-t", "result": 7.91, "unit": "ng·h/mL"},
      {"measurement": "Cmax", "setting": "clinical; 3 mg/m2, Cmax", "result": 5.14, "unit": "ng/mL"},
      {"measurement": "Tmax", "setting": "clinical; 3 mg/m2, Tmax", "result": 28, "unit": "min"},
      {"measurement": "half-life", "setting": "clinical; 3 mg/m2, t1/2", "result": 140, "unit": "min"},
      {"measurement": "AUC0-t", "setting": "clinical; 6 mg/m2, AUC0-t", "result": 11.6, "unit": "ng·h/mL"},
      {"measurement": "Cmax", "setting": "clinical; 6 mg/m2, Cmax", "result": 7.52, "unit": "ng/mL"},
      {"measurement": "Tmax", "setting": "clinical; 6 mg/m2, Tmax", "result": 28, "unit": "min"},
      {"measurement": "half-life", "setting": "clinical; 6 mg/m2, t1/2", "result": 148, "unit": "min"},
      {"measurement": "AUC0-t", "setting": "clinical; 9 mg/m2, AUC0-t", "result": 15.5, "unit": "ng·h/mL"},
      {"measurement": "Cmax", "setting": "clinical; 9 mg/m2, Cmax", "result": 11.5, "unit": "ng/mL"},
      {"measurement": "Tmax", "setting": "clinical; 9 mg/m2, Tmax", "result": 30.2, "unit": "min"},
      {"measurement": "half-life", "setting": "clinical; 9 mg/m2, t1/2", "result": 195, "unit": "min"},
      {"measurement": "AUC0-t", "setting": "clinical; 13.5 mg/m2", "result": 29.1, "unit": "ng·h/mL"},
      {"measurement": "Cmax", "setting": "clinical; 13.5 mg/m2", "result": 18.1, "unit": "ng/mL"},
      {"measurement": "Tmax", "setting": "clinical; 13.5 mg/m2", "result": 22, "unit": "min"},
      {"measurement": "half-life", "setting": "clinical; 13.5 mg/m2", "result": 147, "unit": "min"},
      {"measurement": "AUC0-t", "setting": "clinical; 20 mg/m2, AUC0-t", "result": 33.6, "unit": "ng·h/mL"},
      {"measurement": "Cmax", "setting": "clinical; 20 mg/m2, Cmax", "result": 28.6, "unit": "ng/mL"},
      {"measurement": "Tmax", "setting": "clinical; 20 mg/m2, Tmax", "result": 29, "unit": "min"},
      {"measurement": "half-life", "setting": "clinical; 20 mg/m2, t1/2", "result": 149, "unit": "min"},
      {"measurement": "AUC0-t", "setting": "clinical; 30 mg/m2, AUC0-t", "result": 49.5, "unit": "ng·h/mL"},
      {"measurement": "Tmax", "setting": "clinical; 30 mg/m2, Tmax", "result": 25.5, "unit": "min"},
      {"measurement": "half-life", "setting": "clinical; 30 mg/m2, t1/2", "result": 139, "unit": "min"},
      {"measurement": "AUC0-t", "setting": "clinical; 35 mg/m2, AUC0-t", "result": 88.2, "unit": "ng·h/mL"},
      {"measurement": "Cmax", "setting": "clinical; 35 mg/m2, Cmax", "result": 48.5, "unit": "ng/mL"},
      {"measurement": "Tmax", "setting": "clinical; 35 mg/m2, Tmax", "result": 36.5, "unit": "min"},
      {"measurement": "half-life", "setting": "clinical; 35 mg/m2, t1/2", "result": 188, "unit": "min"},
      {"measurement": "AUC0-t", "setting": "clinical; 40 mg/m2, AUC0-t", "result": 74.1, "unit": "ng·h/mL"},
      {"measurement": "Cmax", "setting": "clinical; 40 mg/m2, Cmax", "result": 52.5, "unit": "ng/mL"},
      {"measurement": "Tmax", "setting": "clinical; 40 mg/m2, Tmax", "result": 26.7, "unit": "min"},
      {"measurement": "half-life", "setting": "clinical; 40 mg/m2, t1/2", "result": 157, "unit": "min"},
      {"measurement": "AUC0-t", "setting": "clinical; 50 mg/m2, AUC0-t", "result": 101, "unit": "ng·h/mL"},
      {"measurement": "Cmax", "setting": "clinical; 50 mg/m2, Cmax", "result": 65.7, "unit": "ng/mL"},
      {"measurement": "Tmax", "setting": "clinical; 50 mg/m2, Tmax", "result": 23.4, "unit": "min"},
      {"measurement": "half-life", "setting": "clinical; 50 mg/m2, t1/2", "result": 153, "unit": "min"},
      {"measurement": "AUC0-t", "setting": "clinical; 60 mg/m2, AUC0-t", "result": 107, "unit": "ng·h/mL"},
      {"measurement": "Cmax", "setting": "clinical; 60 mg/m2, Cmax", "result": 87.4, "unit": "ng/mL"},
      {"measurement": "Tmax", "setting": "clinical; 60 mg/m2, Tmax", "result": 27, "unit": "min"},
      {"measurement": "half-life", "setting": "clinical; 60 mg/m2, t1/2", "result": 153, "unit": "min"},
      {"measurement": "Tmax", "setting": "clinical; 60 mg/m2, tmax", "result": "28.2 ± 8.4", "unit": "min"},
      {"measurement": "half-life", "setting": "clinical; T1/2", "result": "> 150", "unit": "min"},
      {"measurement": "Tmax", "setting": "clinical; Tmax", "result": "< 60", "unit": "min"}
    ]}
  ]
}
